Source: PubChem BioAssay AID179 (DTP/NCI, 2004)
Values joined by “and” are separate entries in the source; they are usually repeats but may differ in a detail not shown here. Equal values may be shown once. Active and inactive are the calls of the source.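 The calls were made as follows: active = compounds giving half or more protection of infected cells from virus-caused growth loss, again on retest; inactive = the rest.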

Test system: CEM cells HIV-1 protection, formazan growth assay
Assay: NCI AIDS Antiviral Assay
Details: for IC50: measured here: growth of uninfected CEM cells
Method in brief: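 Protection of CEM cells against HIV-1 was scored from cell growth (soluble formazan) across five concentrations, with parallel uninfected cells. Lack of protection may reflect toxicity.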

Row | SMILES | outcome | EC50 | IC50
1 | Cc1ccc(S(=O)(=O)N2CC3OC(C)(C)OC3C2CO)cc1 (stereo unspecified) | inactive | – | –
2 | COC(=O)NN/C=C(\C=Nc1ccccc1)[N+](=O)[O-] | – | > 97.7 µM | 87.1 µM
3 | O=C1c2c(c3c4ccccc4n4c3c3c2c2ccccc2n3C/C=C\C4)C(=O)N1Cc1ccccc1 | inactive | – | –
4 | CC(=S)N/C=C/c1c(C(=O)O)cc([N+](=O)[O-])cc1[N+](=O)[O-] | inactive | – | –
5 | O=C1c2cc(Cl)ccc2OC2CCON12 (stereo unspecified) | – | > 200 µM | > 200 µM
6 | COc1cccc(NC(=O)CC(=O)N2N=C(C)C(N=Nc3ccc(C(=O)O)cc3)C2=O)c1 (stereo unspecified) | – | > 200 µM | 63.1 µM
7 | O=S1(=O)c2ccccc2C(O)(c2ccccc2)c2cc3ccccc3n21 (stereo unspecified) | – | > 27.5 µM | > 27.5 µM
8 | COc1c(Cl)cc(Cl)c(CCCCCCCC(=O)O)c1Cl | – | > 100 µM | > 100 µM
9 | C=CC1(O)CC(n2cc(C)c(=O)[nH]c2=O)OC1CO (stereo unspecified) | – | > 200 µM | > 200 µM
10 | CC(C)(C)NN=C1C(C)(C)C(=NNC(C)(C)C)C1(C)C | – | > 316 µM | > 316 µM
11 | COc1ccc(C(O)CC(O)(C(F)(F)F)C(F)(F)F)cc1 (stereo unspecified) | – | > 200 µM | > 100 µM
12 | O=C(OC1CCCC1)C1(O)CCCCC1 | – | > 200 µM | > 200 µM
13 | CCCCCCCCCCCCCC(=O)O[C@@H]1[C@@H](C)[C@@]2(O)[C@@H](C=C(CO)C[C@]3(O)C(=O)C(C)=C[C@@H]23)[C@@H]2C(C)(C)[C@]12OC(C)=O | active | – | –
14 | O=C1C=C(C2=CC(=O)C(=O)c3ccccc32)c2ccccc2C1=O | – | > 151 µM | 1.91 µM
15 | O=C1C(OC(=O)c2ccccc2)=C(c2ccc(O)cc2)C(=O)C(OC(=O)c2ccccc2)=C1c1ccc(O)cc1 | – | > 39.8 µM | > 39.8 µM
16 | CC12CO[C@@](C)(CC(S(=O)(=O)c3ccccc3)C1)O2 (stereo partly specified) | – | > 178 µM | > 178 µM
17 | CSC1=N/C(=C\c2ccccc2)C(=O)N1CN1CCCCC1 | – | > 200 µM | 115 µM
18 | O=S(=O)(O)c1ccc(Sc2ccc(S(=O)(=O)O)cc2)cc1 | – | > 631 µM | > 631 µM
19 | Cc1c(/C=C2\CC/C(=C\c3[nH]c(C(=O)OC(C)(C)C)c(C)c3C)C2=O)[nH]c(C(=O)OC(C)(C)C)c1C | inactive | – | –
20 | Cn1c(=O)c2c(nc3n(CC(O)CCl)c(=O)ccn23)n(C)c1=O (stereo unspecified) | – | > 200 µM | 22.4 µM
21 | CCO[C@H]1N(C2CC(N=[N+]=[N-])C(CO)O2)C(=O)NC(=O)[C@]1(C)Cl (stereo partly specified) | – | > 200 µM | > 200 µM
22 | O=C(OCC(Cl)(Cl)Cl)N1CC[C@@H](C2CCCCC2)C1 | – | > 200 µM | 52.5 µM

Row | SMILES | outcome | EC50 | IC50
23 | CSc1ccn(C2CC(F)C(CO)O2)c(=O)n1 (stereo unspecified) | – | 42.7 µM | > 200 µM
24 | Oc1cc(O)c(C2c3ccc(O)cc3OC(c3ccc(O)c(O)c3)C2O)c(O)c1 (stereo unspecified) | – | > 46.8 µM | > 46.8 µM
25 | C[Si](C)(C)C#CC#C[Si](C)(C)C.[C-]#[O+].[C-]#[O+].[C-]#[O+].[C-]#[O+].[C-]#[O+].[C-]#[O+].[C-]#[O+].[C-]#[O+].[C-]#[O+].[C-]#[O+].[C-]#[O+].[C-]#[O+].[Co].[Co].[Co].[Co] | – | > 1.91 µM | > 1.91 µM
26 | Cc1ns/c(=N\C(=S)N(C)C)n1C | inactive | – | –
27 | O=C(Cc1ccccc1)N=Nc1c(O)[nH]c2ccccc12 | – | > 200 µM | > 200 µM
28 | N=C1c2ccccc2C(=O)c2c(NCCNCCO)ccc(O)c21 | – | > 7.76 µM | 0.759 µM
29 | C[C@H](c1ccccc1)N1C(=O)[C@@H](O)[C@H]1[C@H](CO)OCc1ccccc1 | – | > 200 µM | > 200 µM
30 | Cc1cc(NS(=O)(=O)c2ccc(Nc3c4ccccc4nc4c(C(=O)N5CCN(CCO)CC5)cccc34)cc2)no1 | – | > 38 µM | > 38 µM
31 | COC(=O)c1nc(N)nc(C(=O)OC)c1C(=O)c1ccccc1 | – | > 60.3 µM | > 60.3 µM
32 | OCCN1c2ccccc2Sc2ccc(Cl)cc21 | – | > 200 µM | 61.7 µM
33 | CC1(C)CCCC(C)(C2CCC3(C)C2C(O)CC2C4(C)CCC(O)C(C)(C)C4C(O)CC23C)O1 (stereo unspecified) | inactive | – | –
34 | COc1ccc(-c2n[nH]c3nc4ccccc4n3c2=O)cc1 | – | > 200 µM | > 200 µM
35 | Oc1ccccc1/C=C/c1csnn1 | – | > 178 µM | > 178 µM
36 | O=C1C(=O)c2ccccc2C(O)=C1C(CCc1ccccc1)C1=C(O)c2ccccc2C(=O)C1=O | – | > 200 µM | 55 µM
37 | O=[N+]([O-])c1cccc(SSc2cccc([N+](=O)[O-])c2)c1 | – | > 200 µM and 20.4 µM | 4.57 µM and 34.7 µM and 6.31 µM
38 | CCOC(=O)CCC(NC(=O)c1ccc(N=Cc2nc3cc(C(F)(F)F)ccc3nc2-c2ccccc2)cc1)C(=O)OCC (stereo unspecified) | – | > 5.89 µM | > 5.89 µM
39 | COc1cc(C(=O)O[C@@H]2[C@@H](OC(=O)c3cc(OC)c(OC)c(OC)c3)[C@@H](OC)O[C@@H]3CO[C@@H](c4ccccc4)O[C@@H]23)cc(OC)c1OC | – | > 200 µM | > 200 µM
40 | CC(=O)Oc1ccccc1C(=O)O | – | > 380 µM | > 380 µM
41 | Nc1c(S(=O)(=O)O)[nH]c(=O)[nH]c1=O | – | > 200 µM | > 200 µM
42 | Cc1nc(Nc2ccccc2)sc1C(=O)NNc1ccc([N+](=O)[O-])cc1[N+](=O)[O-] | – | > 63.1 µM | 38 µM
43 | COC1=CC2=C3[C@H](Cc4cc5c(c(c4)Oc4ccc(cc4)C[C@@H]4c6cc7c(cc6CCN4C)OC[C@]3(O7)C1=O)OCO5)N(C)CC2 | inactive | – | –
44 | Nc1nc2c3nc(Nc4ccccc4)sc3nc(=O)n2c2sc(Nc3ccccc3)nc12 | – | > 5.89 µM | > 5.89 µM

Row | SMILES | outcome | EC50 | IC50
45 | N#C/C(=C\c1cc(Cl)cc(Cl)c1)c1ccccn1 | – | > 200 µM | 8.91 µM
46 | Cc1ccc(NCCNCCO)c2c(=O)c3ccccc3sc12 | inactive | – | –
47 | COc1ccc(Cl)cc1NC(=O)O/N=C(\Cl)C(C)C | – | > 20 µM | 2.51 µM
48 | CC1=C(C(=O)Nc2ccc(C)cc2)C(c2cccc([N+](=O)[O-])c2)C(C(=O)Nc2ccc(C)cc2)=C(C)N1 | – | > 14.5 µM | > 14.5 µM
49 | c1ccc2c(c1)C1=NCCN1c1ccccc1-2 | – | > 309 µM | 1.86 µM
50 | COC1CC(C)([N+](=O)[O-])C(O)C(C)O1 (stereo unspecified) | – | > 200 µM | > 200 µM
51 | Nc1sccc1S(=O)(=O)c1ccsc1N | – | > 200 µM | 87.1 µM
52 | Cc1c2[nH]c3ccc(Br)cc3c2c(C)c2[nH]ccc(=O)c12 | – | > 3.31 µM | > 3.31 µM
53 | COc1cc(C(=O)N(C(=S)OCc2ccccn2)c2ccccc2)cc(OC)c1OC | – | > 200 µM | 74.1 µM
54 | OCc1c2c(cc3c1CC1(C3)Cc3cc4c(c(CO)c3C1)CCC4)CCC2 | – | > 200 µM | 8.13 µM
55 | NC(=O)NNC(=O)NC12CC3CC(CC(C3)C1)C2 | inactive | – | –
56 | COC1=NC2=CC(=O)c3c(c(O)c(C)c4c3C(=O)C(C)(O/C=C/C(OC)C(C)C(OC(C)=O)C(C)C(O)C(C)C(O)C(C)/C=C/C=C\1C)O4)C2=O (stereo unspecified) | – | > 200 µM | 33.1 µM
57 | CCOC(=O)c1nc(C)c(-c2ccccc2)c(-c2ccccc2)c1C | – | > 11.5 µM | > 11.5 µM
58 | NC(N)=NS(=O)(=O)c1ccc(Nc2c3ccccc3nc3c(C(=O)N4CCN(CCO)CC4)cccc23)cc1 | – | > 40.7 µM | > 40.7 µM
59 | COc1cc2oc(-c3ccc4c(c3)OCO4)c(OC)c(=O)c2c(OC)c1OC | – | 155 µM | > 200 µM
60 | O=C(O)c1c[nH]n2c(=S)ncnc12 | – | > 871 µM | > 871 µM
61 | CCCCCCCCCCCCCCCCCCNc1nc(=O)n(C2CC(O)C(COP(=O)(O)OCC3CCC(n4ccc(N)nc4=O)O3)O2)cc1F (stereo unspecified) | – | 1.51 µM | 2.04 µM
62 | O=C1CNS(=O)(=O)N1 | – | > 1820 µM | > 1820 µM
63 | O=C1CCC2CN3CCc4c([nH]c5ccccc45)C3CC2C1 (stereo unspecified) | – | > 45.7 µM | –
64 | COC(=O)c1ccc(NCc2cc(O)ccc2O)cc1 | – | > 200 µM | 11.7 µM
65 | COc1cc(-c2oc3c(OC)c(OC)cc(O)c3c(=O)c2OC)ccc1O | – | > 100 µM | 12.6 µM and 3.55 µM
66 | COc1ccc(/C=C/C(=O)c2c(-c3ccccc3)nn(C)c(=O)c2N2CCOCC2)cc1 | – | > 44.7 µM | > 44.7 µM

Row | SMILES | outcome | EC50 | IC50
67 | C=C1CN=C(Nc2ccc(F)cc2F)S1 | – | > 200 µM | > 100 µM
68 | Cc1ccc2c(c1)C(=O)N1CSCC1C(=O)S2 (stereo unspecified) | – | > 251 µM | 32.4 µM
69 | CCCOc1csc([C@H]2CCC3[C@@H]4CC=C5C[C@@H](OC(=O)CCC(=O)O)CC[C@]5(C)C4CC[C@@]32C)n1 (stereo partly specified) | – | > 47.9 µM | 18.2 µM
70 | O=C1OCCN1N1C(=O)CC2(CCCCC2)C1=O | – | > 200 µM | > 200 µM
71 | COC(=O)c1c(O)c(C#N)c2[nH]c3ccccc3n2c1=O | – | > 100 µM | > 100 µM
72 | Cn1cccc(C(=O)c2ccccc2)c1=O | inactive | – | –
73 | O=C(O)CNS(=O)(=O)c1ccc(NC(=O)c2ccc([N+](=O)[O-])cc2)cc1 | inactive | – | –
74 | C[C@]12CCC(=O)C(OC(=O)c3ccc([N+](=O)[O-])cc3)=C1CCC2=O | inactive | – | –
75 | COC(=O)C1=C(CO)C2C=CC1C2 (stereo unspecified) | inactive | – | –
76 | COc1c(OC)c(C2(O)C(=O)N(C)c3ccccc32)c2c(c1C1(O)C(=O)N(C)c3ccccc31)OCO2 (stereo unspecified) | – | > 200 µM | > 200 µM
77 | CSc1cnnc2ccccc12 | – | > 603 µM | 263 µM
78 | CC(C)(C)OC(=O)NC(C)(C)C(=O)NCCC(=O)O | – | > 200 µM | > 200 µM
79 | O=C(O)CSc1n[nH]c(-c2ccccc2O)n1 | – | > 372 µM | 182 µM
80 | CC1CCC2(C)C(CC=C(C=O)C2(O)C=O)C12CO2 (stereo unspecified) | inactive | – | –
81 | CC1=N/C(=C\c2ccccc2F)C(=O)O1 | – | > 631 µM | > 631 µM
82 | COC(=O)C1Cc2cc3c(cc2C1)CCC3 | – | > 200 µM | > 200 µM
83 | CC(=O)c1sc2c(c1OC(=O)c1ccccc1)c(=O)n(-c1ccccc1)c(=S)n2-c1ccccc1 | – | > 2 µM | 0.0631 µM
84 | Cn1c(=O)c2nc(NCc3ccccc3)sc2n(C)c1=O | – | > 61.7 µM | > 61.7 µM
85 | O=C(Nc1ccc(C2=NCCN2)cc1)Nc1cc(NC(=O)Nc2ccc(C3=NCCN3)cc2)cc(C(=O)O)c1 | – | 38.9 µM | > 200 µM
86 | CN(c1ccccc1)C1C(=O)N(c2ccccc2)C1/C=C/c1ccccc1 (stereo unspecified) | inactive | – | –
87 | Cc1ccc(C2=[N+]([O-])c3ccccc3C2=O)cc1 | inactive | – | –
